Test results reported in US10144715B2, “Piperazine derivatives as liver X receptor modulators” (priority 2014, dated 2018).
Like-named read-outs stand apart in the source and are kept apart here.

Key:
[1] = biological target: Gal4 DNA binding domain fused to the LBD of LXRα in HEK293 cells (Homo sapiens (Human), UniProt Q13133); test: LXR luciferase transcriptional reporter gene assay, agonist mode, LXRα; format: cell-based; conditions: for EC50: read-out: Cell LXRα EC50
[2] = biological target: LXR α LBD protein (Homo sapiens (Human), UniProt Q13133); test: LXR α radioligand binding assay (SPA, competition with [3H]TO901317); conditions: read-out: LXRα Binding Ki
[3] = biological target: Gal4 DNA binding domain fused to the LBD of LXRβ in HEK293 cells (Homo sapiens (Human), UniProt P55055); test: cell-based; conditions: for Cell LXRβ efficacy: agonist mode
[4] = biological target: LXR β LBD protein (Homo sapiens (Human), UniProt P55055); test: biochemical; format: binding
LXR β LBD protein, sequence (P55055 222-460 limits assumed): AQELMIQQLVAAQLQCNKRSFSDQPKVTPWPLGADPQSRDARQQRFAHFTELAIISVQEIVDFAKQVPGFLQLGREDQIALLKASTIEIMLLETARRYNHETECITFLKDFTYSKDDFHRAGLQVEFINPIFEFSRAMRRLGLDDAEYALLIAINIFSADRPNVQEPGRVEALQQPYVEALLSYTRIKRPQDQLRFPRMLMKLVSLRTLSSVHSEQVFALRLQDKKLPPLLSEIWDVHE

LXR α LBD protein, sequence (Q13133 209-447): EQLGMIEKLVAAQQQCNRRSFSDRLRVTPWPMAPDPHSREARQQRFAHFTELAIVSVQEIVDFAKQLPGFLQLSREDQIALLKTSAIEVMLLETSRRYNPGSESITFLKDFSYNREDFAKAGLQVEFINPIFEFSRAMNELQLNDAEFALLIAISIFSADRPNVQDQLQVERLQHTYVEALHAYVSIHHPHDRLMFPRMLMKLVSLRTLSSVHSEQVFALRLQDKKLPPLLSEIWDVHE
Gal4 DNA binding domain fused to the LBD of LXRα in HEK293 cells, sequence (Q13133 209-447): as above
Gal4 DNA binding domain fused to the LBD of LXRβ in HEK293 cells, sequence (P55055 222-460 limits assumed): as the sequence (P55055 222-460 limits assumed) above

Row | Compound | EC50 ([1]; agonist mode) | Ki [2] | EC50 [3] | Ki ([4]; read-out: LXRβ Binding Ki) | EC50 [1] | Cell LXRα efficacy [1] | Cell LXRβ efficacy [3] | Ki [4]
1 | CC(C)[C@@H]1CN(c2ccc(F)c(S(C)(=O)=O)c2)CCN1c1ncc(C(=O)N(C)CCCNC(=O)OC(C)(C)C)c(C(F)(F)F)n1 [17-23, tert-butyl (R)-(3-(2-(4-(4-fluoro-3-(methylsulfonyl)phenyl)-2-isopropylpiperazin-1-yl)-N-methyl-4-(trifluoromethyl)pyrimidine-5-carboxamido)propyl)carbamate] | > 20000 nM | 1420 nM | > 20000 nM | 257 nM | – | – | – | –
2 | Cc1nc(N2CCN(c3ccc(F)c(S(C)(=O)=O)c3)C[C@H]2C(C)C)ncc1C(N)=O [17-24, (R)-2-(4-(4-fluoro-3-(methylsulfonyl)phenyl)-2-isopropylpiperazin-1-yl)-4-methylpyrimidine-5-carboxamide] | > 20000 nM | > 3330 nM | > 20000 nM | 611 nM | – | – | – | –
3 | COCCN(C)C(=O)c1cnc(N2CCN(c3ccc(F)c(S(C)(=O)=O)c3)C[C@H]2C(C)C)nc1C [17-26, (R)-2-(4-(4-fluoro-3-(methylsulfonyl)phenyl)-2-isopropylpiperazin-1-yl)-N-(2-methoxyethyl)-N,4-dimethylpyrimidine-5-carboxamide] | > 20000 nM | > 3330 nM | > 20000 nM | 2330 nM | – | – | – | –
4 | Cc1nc(N2CCN(c3ccc(F)c(S(C)(=O)=O)c3)C[C@H]2C(C)C)ncc1C(=O)N(C)CCCO [17-27, (R)-2-(4-(4-fluoro-3-(methylsulfonyl)phenyl)-2-isopropylpiperazin-1-yl)-N-(3-hydroxypropyl)-N,4-dimethylpyrimidine-5-carboxamide] | – | > 3330 nM | > 20000 nM | > 2500 nM | > 20000 nM | – | – | –
5 | CC(C)[C@@H]1CN(c2cc(S(C)(=O)=O)c(CO)cc2F)CCN1c1ncc(C(N)=O)c(C(F)(F)F)n1 [17-29, (R)-2-(4-(2-fluoro-4-(hydroxymethyl)-5-(methylsulfonyl)phenyl)-2-isopropylpiperazin-1-yl)-4-(trifluoromethyl)pyrimidine-5-carboxamide] | 1950 nM | 1270 nM | 142 nM | 191 nM | – | 1950 (15) % | 142 (17) % | –
6 | CCN(CCOC)C(=O)c1cnc(N2CCN(c3ccc(F)c(S(C)(=O)=O)c3)C[C@H]2C(C)C)nc1C [17-30, (R)-N-ethyl-2-(4-(4-fluoro-3-(methylsulfonyl)phenyl)-2-isopropylpiperazin-1-yl)-N-(2-methoxyethyl)-4-methylpyrimidine-5-carboxamide] | > 20000 nM | > 3330 nM | > 20000 nM | – | – | – | – | 1800 nM
7 | COCCCN(C)C(=O)c1cnc(N2CCN(c3ccc(F)c(S(C)(=O)=O)c3)C[C@H]2C(C)C)nc1C [17-31, (R)-2-(4-(4-fluoro-3-(methylsulfonyl)phenyl)-2-isopropylpiperazin-1-yl)-N-(3-methoxypropyl)-N,4-dimethylpyrimidine-5-carboxamide] | > 20000 nM | > 3330 nM | > 20000 nM | – | – | – | – | 2450 nM
8 | CN(C)C(=O)c1cnc(N2CCN(c3ccc(F)c(S(C)(=O)=O)c3)C[C@H]2c2ccc(F)cc2)nc1C(F)(F)F [17-33, (R)-2-(4-(4-fluoro-3-(methylsulfonyl)phenyl)-2-(4-fluorophenyl)piperazin-1-yl)-N,N-dimethyl-4-(trifluoromethyl)pyrimidine-5-carboxamide] | > 20000 nM | 10600 nM | > 20000 nM | – | – | – | – | 1220 nM
9 | CC(C)[C@@H]1CN(c2ccc(CO)c(S(C)(=O)=O)c2)CCN1c1nc(C(F)(F)F)c(C(=O)N(C)C)s1 [17-34, (R)-2-(4-(4-(hydroxymethyl)-3-(methylsulfonyl)phenyl)-2-isopropylpiperazin-1-yl)-N,N-dimethyl-4-(trifluoromethyl)thiazole-5-carboxamide] | 465 nM | 152 nM | 105 nM | 23 nM | – | 465 (98) % | 105 (94) % | –
10 | CC(C)[C@@H]1CN(c2ccc(CO)c(S(C)(=O)=O)c2)CCN1c1nc(C(F)(F)F)c(C(N)=O)s1 [17-35, (R)-2-(4-(4-(hydroxymethyl)-3-(methylsulfonyl)phenyl)-2-isopropylpiperazin-1-yl)-4-(trifluoromethyl)thiazole-5-carboxamide] | – | 1660 nM | 161 nM | 111 nM | 1740 nM | 1738 (19) % | 161 (23) % | –
11 | CC(C)[C@@H]1CN(c2ccc(CO)c(S(C)(=O)=O)c2)CCN1c1nc(C(F)(F)F)c(C(C)(C)O)o1 [26-2, (R)-2-(2-(4-(4-(hydroxymethyl)-3-(methylsulfonyl)phenyl)-2-isopropylpiperazin-1-yl)-4-(trifluoromethyl)oxazol-5-yl)propan-2-ol] | – | 1180 nM | 329 nM | 72 nM | 2230 nM | 2233 (99) % | 329 (74) % | –
